According to US7528164B2, “Substituted 4-aryl-4h-pyrrolo[2,3-h]chromenes and analogs as activators of caspases and inducers of apoptosis and the use thereof” (Cytovia, Inc., priority 2002, dated 2009):
Like-named read-outs stand apart in the source and are kept apart here.

Tests used:
[1] = test system: T-47D; test: Caspase cascade activation assay in T-47D cells (N-(Ac-DEVD)-N'-ethoxycarbonyl-R110 fluorogenic substrate); type: cell-based; conditions: T-47D human breast cancer cells, 24 h incubation; for Caspase activity (Ratio): ratio of net RFU of test compound to control; for EC50: sigmoidal dose-response, read-out: Caspase potency EC50
Protocol: (§1) Human breast cancer cell lines T-47D and ZR-75-1 were grown according to media component mixtures designated by American Type Culture Collection+10% FCS (Invitrogen Corporation), in a 5% CO2-95% humidity incubator at 37° C. T-47D and ZR-75-1 cells were maintained at a cell density between 30 and 80% confluency at a cell density of 0.1 to 0.6×10^6 cells/mL. Cells were harvested at 600×g and resuspended at 0.65×10^6 cells/mL into appropriate media+10% FCS. An aliquot of 45 μl of cells was added to a well of a 96-well microtiter plate containing 5 μl of a 10% DMSO in RPMI-1640 media solution containing about […] of 2-amino-3-cyano-4-(5-methyl-pyridin-3-yl)-7-methyl-4H-pyrrolo[2,3-h]chromene (Example 10) or other test compound (0.016 to 1 μM final). An aliquot of 45 μl of cells was added to a well of a 96-well microtiter plate containing 5 μl of a 10% DMSO in RPMI-1640 media solution without test compound as the control sample. The samples were mixed by agitation and then incubated at 37° C. for 24 h in a 5% CO2-95% humidity incubator. After incubation, the samples were removed from the incubator and 50 μl of a solution containing 20 μM of N-(Ac-DEVD)-N′-ethoxycarbonyl-R110 (SEQ ID No:1) fluorogenic substrate (Cytovia, Inc.; U.S. Pat. No. 6,335,429), 20% sucrose (Sigma), 20 mM DTT (Sigma), 200 mM NaCl (Sigma), 40 mM Na PIPES buffer pH 7.2 (Sigma), and 500 μg/ml lysolecithin (Calbiochem) was added. The samples were mixed by agitation and incubated at room temperature. Using a fluorescent plate reader (Model 1420 Wallac Instruments), an initial reading (T=0) was made approximately 1-2 min after addition of the substrate solution, employing excitation at 485 nm and emission at 530 nm, to determine the background fluorescence of the control sample. After the 3 h incubation, the samples were read for fluorescence as above (T=3 h).
(§2) The Relative Fluorescence Unit values (RFU) were used to calculate the sample readings as follows: RFU(T=3h)−Control RFU(T=0)=Net RFU(T=3h) The activity of caspase cascade activation was determined by the ratio of the net RFU value for 2-amino-3-cyano-4-(5-methyl-pyridin-3-yl)-7-methyl-4H-pyrrolo[2,3-h]chromene or other test compound to that of control samples. The EC50 (nM) was determined by a sigmoidal dose-response calculation (Prism 2.0, GraphPad Software Inc.).

[2] = test system: ZR-75-1; test: Caspase cascade activation assay in ZR-75-1 cells (N-(Ac-DEVD)-N'-ethoxycarbonyl-R110 fluorogenic substrate); type: cell-based; conditions: ZR-75-1 human breast cancer cells, 24 h incubation; for Caspase activity (Ratio): ratio of net RFU of test compound to control; for EC50: sigmoidal dose-response, read-out: Caspase potency EC50
Protocol: as §1, §2

Molecule	Caspase activity (Ratio) [1]	EC50 [1] [nM]	Caspase activity (Ratio) [2]	EC50 [2] [nM]	EC50 ([1]; T47D) [nM]
2-Amino-3-cyano-4-(5-methyl-pyridin-3-yl)-7-methyl-4H-imidazo[4,5-h]chromene [Example 14]	8.0	19.8	9.9	10.4	
2-Amino-4-(3-bromo-4,5-dimethoxyphenyl)-3-cyano-7-(2-diethyl-amino-ethyl)-4H-pyrrolo[2,3-h]chromene [Example 6]	3.3	413	7.0	259	
2-Amino-4-(3-bromo-4,5-dimethoxyphenyl)-3-cyano-7-methyl-4H-imidazo[4,5-h]chromene [Example 12]	5.4	1.6	8.5	1.5	
2-Amino-4-(5-bromo-pyridin-3-yl)-3-cyano-7-methyl-4H-imidazo[4,5-h]chromene [Example 13]	8.8	6.8	8.0	3.2	
Cn1ccc2c3c(ccc21)C(c1cncc(C#N)c1)C(C#N)=C(N)O3 (stereo not shown) [Example 1, 2-Amino-4-(5-cyano-pyridin-3-yl)-3-cyano-7-methyl-4H-pyrrolo[2,3-h]chromene]	8.3		5.2	6.5	25.5
Cc1cncc(C2C(C#N)=C(N)Oc3c2ccc2c3ccn2C)n1 (stereo not shown) [Example 2, 2-Amino-3-cyano-7-methyl-4-(6-methyl-pyrazin-2-yl)-4H-pyrrolo[2,3-h]chromene]	8.2		4.3	41.3	110
Cn1ccc2c3c(ccc21)C(c1cnc2ccccc2n1)C(C#N)=C(N)O3 (stereo not shown) [Example 3, 2-Amino-3-cyano-7-methyl-4-(quinoxalin-2-yl)-4H-pyrrolo[2,3-h]-chromene]	5.6		3.1	27.8	58.1
CCn1ccc2c3c(ccc21)C(c1cc(Br)c(OC)c(OC)c1)C(C#N)=C(N)O3 (stereo not shown) [Example 4, 2-Amino-4-(3-bromo-4,5-dimethoxyphenyl)-3-cyano-7-ethyl-4H-pyrrolo[2,3-h]chromene]	6.6		9.2	13.1	14
COc1cc(C2C(C#N)=C(N)Oc3c2ccc2c3ccn2CC2CC2)cc(Br)c1OC (stereo not shown) [Example 5, 2-Amino-4-(3-bromo-4,5-dimethoxyphenyl)-3-cyano-7-cyclopropylmethyl-4H-pyrrolo[2,3-h]chromene]	4.0		3.0	28.6	55.3
Cn1ccc2c3c(ccc21)C(c1cncc(Cl)c1)C(C#N)=C(N)O3 (stereo not shown) [Example 7, 2-Amino-4-(5-chloro-pyridin-3-yl)-3-cyano-7-methyl-4H-pyrrolo[2,3-h]chromene]	5.1		13.1	2.7	6.7
Cn1ccc2c3c(ccc21)C(c1c[nH]c2ccccc12)C(C#N)=C(N)O3 (stereo not shown) [Example 8, 2-Amino-3-cyano-4-(indol-3-yl)-7-methyl-4H-pyrrolo[2,3-h]chromene]	3.8		8.9	55	58.7
Cn1ccc2c3c(ccc21)C(c1cnc(O)c(Cl)c1)C(C#N)=C(N)O3 (stereo not shown) [Example 9, 2-Amino-4-(5-chloro-6-hydroxy-pyridin-3-yl)-3-cyano-7-methyl-4H-pyrrolo[2,3-h]chromene]	8.3		7.8	6.2	14.2
Cc1cncc(C2C(C#N)=C(N)Oc3c2ccc2c3ccn2C)c1 (stereo not shown) [Example 10, 2-Amino-3-cyano-4-(5-methyl-pyridin-3-yl)-7-methyl-4H-pyrrolo[2,3-h]chromene]	3.1		6.6	1.6	2.3
Cn1ccc2c3c(ccc21)C(c1cncc(Br)c1)C(C#N)=C(N)O3 (stereo not shown) [Example 11, 2-Amino-4-(5-bromo-pyridin-3-yl)-3-cyano-7-methyl-4H-pyrrolo [2,3-h]chromene]	4.6		4.1	1.1	2.9
COc1cc(C2C(C#N)=C(N)Oc3c2ccc2c3ccn2C)cc(Br)c1OC (stereo not shown) [Example 16, 2-Amino-4-(3-bromo-4,5-dimethoxyphenyl)-3-cyano-7-methyl-4H-pyrrolo[2,3-h]chromene]	8.1		11.7	1	1.6
COc1cc(C2C(C#N)=C(N)Oc3c2ccc2c3ccn2CO)cc(Br)c1OC (stereo not shown) [Example 17, 2-Amino-4-(3-bromo-4,5-dimethoxyphenyl)-3-cyano-7-hydroxymethyl-4H-pyrrolo[2,3-h]chromene]	7.2		3.3	1.6	2.1
COc1cc(C2C(C#N)=C(N)Oc3c2ccc2c3ccn2C)cc(Br)c1O (stereo not shown) [Example 18, 2-Amino-4-(3-bromo-4-hydroxy-5-methoxyphenyl)-3-cyano-7-methyl-4H-pyrrolo[2,3-h]chromene]	4.0		6.6	3.4	6
COc1cc(C2C(C#N)=C(N)Oc3c2ccc2c3ccn2CC2CO2)cc(Br)c1OC (stereo not shown) [Example 19, 2-Amino-4-(3-bromo-4,5-dimethoxyphenyl)-3-cyano-7-oxiranylmethyl-4H-pyrrolo[2,3-h]chromene]	10.2		11.7	107	231
Cc1cncc(C2C(C#N)=C(N)Oc3c2ccc2c3ccn2CO)c1 (stereo not shown) [Example 20, 2-Amino-3-cyano-4-(5-methyl-pyridin-3-yl)-7-hydroxymethyl-4H-pyrrolo[2,3-h]chromene]	4.7		6.3	2.4	3.7
N#CC1=C(N)Oc2c(ccc3c2ccn3CO)C1c1cncc(Br)c1 (stereo not shown) [Example 21, 2-Amino-4-(5-bromo-pyridin-3-yl)-3-cyano-7-hydroxymethyl-4H-pyrrolo[2,3-h]chromene]	2.2		4.4	1.6	3
COc1cc(C2C(C#N)=C(N)Oc3c2ccc2c3ccn2C)cc(Br)c1OC(C)=O (stereo not shown) [Example 22, 2-Amino-4-(4-acetoxy-3-bromo-5-methoxyphenyl)-3-cyano-7-methyl-4H-pyrrolo[2,3-h]chromene]	5.3		7.2	2	3.4
COc1cc(C2C(C#N)=C(N)Oc3c2ccc2c3CCN2C)cc(Br)c1OC (stereo not shown) [Example 23, 2-Amino-4-(3-bromo-4,5-dimethoxyphenyl)-3-cyano-8,9-dihydro-7-methyl-4H-pyrrolo[2,3-h]chromene]	5.2		5.0	2.3	3.3
COc1cc(C2C(C#N)=C(N)Oc3c2ccc2c3ccn2C)cc(OC)c1OC (stereo not shown) [Example 24, 2-Amino-3-cyano-4-(3,4,5-trimethoxyphenyl)-7-methyl-4H-pyrrolo[2,3-h]chromene]	5.5		7.1	2.2	3.4
Cn1ccc2c3c(ccc21)C(c1cccc([N+](=O)[O-])c1)C(C#N)=C(N)O3 (stereo not shown) [Example 25, 2-Amino-3-cyano-4-(3-nitrophenyl)-7-methyl-4H-pyrrolo[2,3-h]chromene]	3.2		7.1	3.2	7.2
COc1cc(OC)cc(C2C(C#N)=C(N)Oc3c2ccc2c3ccn2C)c1 (stereo not shown) [Example 26, 2-Amino-3-cyano-4-(3,5-dimethoxyphenyl)-7-methyl-4H-pyrrolo[2,3-h]chromene]	5.2		7.1	1.7	3.5
